Laboratory results: article PMC11489206, “Transport of perfluoroalkyl substances across human induced pluripotent stem cell-derived intestinal epithelial cells in comparison with primary human intestinal epithelial cells and Caco-2 cells” (Archives of Toxicology, 2024)

Columns and labels:
[1] = Transport study across EpiIntestinal microtissues; conditions: human
Protocol: The human EpiIntestinal small intestinal microtissues, consisting of epithelial cells and an underlying lamina propria containing intestinal fibroblasts, were obtained from MatTek Life Sciences (Ashland, USA). Cell culture inserts (8.8 mm ID) were placed in 12-well plates and cells were maintained in 100 µl maintenance medium (MatTek Life Sciences) in the apical compartment and 5 ml maintenance medium in the basolateral compartment upon arrival. The transport studies were performed 1 day after arrival.
(§1) Transport studies were performed in Caco-2 cells, hiPSC-derived IECs and EpiIntestinal microtissues. To that end, Caco-2 cell layers were differentiated for 21 days and hiPSCs were differentiated into IEC layers for 26 days, as described above. EpiIntestinal microtissues were subjected to transport studies 1 day after arrival. […] For all models, PFAS transport was assessed in apical to basolateral, and basolateral to apical direction using HBSS containing a mixture of PFASs containing 1 µM of each PFAS. See Supplementary Data for a detailed description of the method used for the transport studies of the model compounds and PFASs.
(§2) Prior to exposure to the transport study compounds, the cells were washed with transport medium (HBSS; Sigma). […] 100 µL aliquots were collected from the basolateral compartment and replaced with the same volume HBSS at settled time points (0, 15, 30 and 60 min). For basolateral to apical transport in the EpiIntestinal microtissues, 0.2 mL HBSS was added to the apical compartment and 0.5 mL HBSS containing a mixture of PFASs containing 1 µM of each PFAS, was added to the basolateral compartment. 100 µL aliquots were collected from the apical compartment and replaced with the same volume of HBSS at settled time points (0, 15, 30 and 60 min). For apical to basolateral transport across the Caco-2 cell layers and hiPSC-derived IEC layers, 1.2 mL HBSS was added to the basolateral compartment and 0.4 mL HBSS containing either model compounds (10 µM) or a mixture of PFASs containing 1 µM of each PFAS, was added to the apical compartment. 100 µL aliquots were collected from the basolateral compartment and replaced with the same volume of HBSS at settled time points (0, 7.5, 15, 30 and 60 min for the model compounds with both models and the PFASs with the hiPSC-derived IEC layers and 0, 15, 30 and 60 min for PFASs with the Caco-2 cell layers). For basolateral to apical transport, 0.4 mL HBSS was added to the apical compartment and 1.2 mL HBSS containing 10 µM of the model compounds or a mixture of PFASs containing 1 µM of each PFAS, was added to the basolateral compartment. 100 µL aliquots were collected from the apical compartment and replaced with the same volume of HBSS at settled time points (0, 7.5, 15, 30 and 60 min for the model compounds with both models and the PFASs with the hiPSC-derived IEC layers and 0, 15, 30 and 60 min for PFASs with the Caco-2 cell layers). After 60 minutes, all liquid was collected from the apical and basolateral compartment and the cells were lysed in 200 µL RIPA buffer (Thermo Fisher Scientific), and chemicals were quantified in the different compartments (apical, basolateral and cells) in order to calculate the mass balance.
(§3) The apparent permeability coefficient (Papp, cm/s) was calculated using the following equation: […]
where A is the surface area (cm^2), dQ is the amount of the compound transported (nmol) over the respective time interval dt (s) and C0 is the initial concentration in the donor compartment (µM).

[2] = Transport study across hiPSC-derived IEC layers; conditions: human
Protocol: For differentiation into IECs, definitive endoderm cells were subsequently differentiated into intestinal stem cells by changing medium into DMEM/F12 containing 2% fetal bovine serum, 1% GlutaMAX (Gibco) and 250 ng/ml FGF2 (R&D Systems). After 4 days, cells were dissociated using Accutase and seeded onto polyester Transwell inserts (0.4 µm, Corning) coated with Growth Factor Reduced Matrigel #356231. Cells were cultured for 7 days in intestinal differentiation medium (DMEM/F-12 containing 2% fetal bovine serum, 1% non-essential amino acids (Gibco), 1 × B27 (Gibco), 1 × N2 (Gibco), 1% penicillin/streptomycin (Gibco) and 2 mM L-glutamine (Gibco)) supplemented with 20 ng/ml EGF (R&D Systems) and 30 µM Forskolin (Sigma). ROCK inhibitor, y-27632 (final concentration 10 µM; Stem Cell Technologies), was added during the initial 24 h after seeding to reduce cell death. The cells were subsequently cultured for 12 days in intestinal differentiation medium supplemented with 20 ng/ml EGF, 30 µM Forskolin, 5 µM 5-aza-2′-deoxycytidine (Sigma), 20 µM PD98059 (Stem Cell Technologies) and 0.5 µM A-83–01 (Sigma). The medium was refreshed every 2–3 days. Barrier integrity was determined by measuring apical to basolateral translocation of Lucifer yellow (see Supplementary Data for a detailed description).
as §1
as §2, with “layers).” for “layers). After 60 minutes, all liquid was collected from the apical and basolateral compartment and the cells were lysed in 200 µL RIPA buffer (Thermo Fisher Scientific), and chemicals were quantified in the different compartments (apical, basolateral and cells) in order to calculate the mass balance.”

Caco-2 cell layers = assay: Transport study across Caco-2 cell layers; conditions: Caco-2 model; PFAS mixture 1 µM each; not detected in the basolateral compartment
Protocol: (§4) Human colorectal adenocarcinoma cells (Caco-2, HTB-37) were obtained from American Type Culture Collection (ATCC, Manassas, VA). Cells were cultured in a humidified incubator (37°C, 5% CO2) in Dulbecco’s modified Eagle’s medium (DMEM) supplemented with 10% heat-inactivated fetal bovine serum (Gibco, Thermo Fisher Scientific, Waltham, MA), 1% non-essential amino acids (Gibco) and 1% penicillin/streptomycin (Sigma). For experiments, Caco-2 cells below passage number 50 were used within 10 passages. They were harvested at 80% confluence using Trypsin/EDTA (0.25%/0.05%; PAN Biotech, Aidenbach, Germany) and seeded at a density of 4 × 10^5 cells/cm^2 into inserts with a polycarbonate membrane (0.4 µm pore, Corning, New York, NY). After 21 days of differentiation (using 500 µl cell culture medium in the apical and 1500 µl in the basolateral compartment), monolayer integrity was determined by measuring transepithelial electrical resistance (TEER) with a Millicell ERS Volt-Ohm meter (Millipore, Bedford, MA).
as §1, §2, §3

[3] = Transport study across Caco-2 cell layers; conditions: human, Caco-2
Protocol: as §4, §1, §2, §3

hiPSC-derived IEC layers = assay: Barrier integrity: apical to basolateral translocation of lucifer yellow; format: in vitro ADME, human; conditions: terminally differentiated IECs; 500 µg/ml apical, 3 hours; data not shown
Protocol: The medium was refreshed every 2–3 days.
To determine barrier integrity of the hiPSC-derived IEC layers, apical to basolateral translocation of lucifer yellow was measured. 500 µg/ml Lucifer yellow, in differentiation medium, containing EGF, Forskolin, 5-aza-2′-deoxycytidine, PD98059, A-83-01, was added to the apical compartment (400 µl/insert) and incubated at 37 °C for 3 hours. 50 µl medium was collected from the basolateral compartment at 30 min intervals. The fluorescence intensity was measured at 485 nm excitation and 530 nm emission wavelength using a microplate reader (Synergy HT, BioTek, Winooski, VT).

Row | Compound | Papp A→B at 60 min, 1 µM [1] [×10⁻⁶ cm/s] | Papp B→A at 60 min, 1 µM [1] [×10⁻⁶ cm/s] | efflux ratio at 60 min, 1 µM [1] | Papp A→B at 60 min, 1 µM [2] [×10⁻⁶ cm/s] | Papp B→A at 60 min, 1 µM [2] [×10⁻⁶ cm/s] | efflux ratio at 60 min, 1 µM [2] | Transport (in words) (Caco-2 cell layers) | Papp B→A at 60 min, 1 µM [3] [×10⁻⁶ cm/s] | Apical to basolateral transport of lucifer yellow (hiPSC-derived IEC layers)
1 | O=C(O)C(F)(OC(F)(F)C(F)(F)C(F)(F)F)C(F)(F)F (stereo not drawn) [HFPO-DA, hexafluoropropylene oxide dimer acid] | 1.16 ± 0.19 | 1.04 ± 0.09 | 0.9 | 3.09 ± 0.09 | 4.49 ± 0.27 | 1.45 | no transport | 1.23 ± 0.25 | 
2 | lucifer yellow |  |  |  |  |  |  |  |  | no quantifiable
